In patent US11912755B2, “Endostatin fragments and variants for use in treating fibrosis” (iBio, Inc., priority 2015, dated 2024):
“Also recorded” adds a separate entry of the source. Ends that are not written are not given here.

Legend:
lysyl oxidase (LOX) [1] = conditions: Yamaguchi et al. 2012; cited from earlier work
lysyl oxidase (LOX) [2] = assay: LOX immunohistochemistry in lung sections of bleomycin-treated mice; type: in vivo, mouse; conditions: bleomycin with or without E4
From the text: FIG. 12. […] Lung sections of mice treated with BLM with or without E4 were used in immunohistochemistry to detect LOX. The sections shown are control IgG, phosphate buffered saline, bleomycin and bleomycin followed by treatment with E4.

[3] = system: human primary lung fibroblasts; assay: Western blot of FN, Col1α1 and α-SMA in primary lung fibroblasts; type: cell-based
Experimental: (§1) Primary Fibroblast Culture. Human primary lung and skin fibroblasts were cultured. The explanted lungs of normal organ donors, patients with SSc or IPF, and clinically involved skin of SSc patients, a morphea patient and healthy donors were used for primary fibroblast culture. Approximately 2-cm pieces of peripheral lung and skin were minced and fibroblasts were cultured in Dulbecco's modified Eagle's medium (DMEM; Mediatech, Herndon, Va.) supplemented with 10% FBS, penicillin, streptomycin, and anti-mycotic agent, as previously described (Feghali et al., Arthritis Rheum 1999; 42:1451-7). All the cells were used between passages 3-6.
Western Blot Analysis. Cellular lysates were obtained from cultured fibroblasts as previously described (Pilewski et al., Am J Pathol 2005; 166:399-407). Briefly, 2.0×10^5 primary fibroblasts were cultured in 35-mm wells in 0.5% FBS-containing medium supplemented with 10 ng/ml of human recombinant TGF-β or PBS as vehicle control for 24 h, […] In some experiments, endostatin peptides were used without TGF-β stimulation. Cellular lysates were analyzed by Western blot. Signals were detected following incubation with horseradish peroxidase-conjugated secondary antibody and chemiluminescence (Perkin Elmer Life Sciences, Inc., Boston, Mass.). The intensity of individual bands with expected molecular sizes was semi-quantitatively analyzed using the image/J® software available at on the Internet (/rsb.info.nih.gov/ij/index.html), and normalized to individual GAPDH intensity.

MMP-3 = assay: Genes regulated by E4: MMP-3; type: cell-based, human; conditions: HuF-T; RT-qPCR, protein expression levels, zymography
Experimental: Several experiments have been performed to identify the mechanisms by which E4 exerts its anti-fibrotic activity. Real-time quantitative PCR (qPCR)-based arrays were performed on RNA extracted from primary human lung fibroblasts or mouse lung tissue stimulated with various fibrotic triggers in the absence and presence of E4 treatment in order to identify genes influenced by the endostatin peptide.
The arrays identified several genes that have been previously implicated in fibrosis to be influenced by E4 treatment. These genes included connective tissue growth factor (CTGF), insulin-like growth factor binding protein (IGFBP)-3, matrix metalloproteases (MMP)-1 and MMP-3, urokinase plasminogen activator (uPA), plasminogen activator inhibitor (PAI)-1, and hepatocyte growth factor (HGF) with levels either decreased or increased in the presence of E4 as shown in TABLE 5.

human skin explants = conditions: single dose concurrently with TGF-β; cited from earlier work
[4] = system: human primary skin fibroblasts; assay: Western blot of ECM production in primary skin fibroblasts; type: cell-based; conditions: dermal fibroblasts of healthy controls, SSc or morphea patients
Experimental: as §1
Western Blot Analysis. Cellular lysates were obtained from cultured fibroblasts as previously described (Pilewski et al., Am J Pathol 2005; 166:399-407). […] Cellular lysates were analyzed by Western blot. Signals were detected following incubation with horseradish peroxidase-conjugated secondary antibody and chemiluminescence (Perkin Elmer Life Sciences, Inc., Boston, Mass.). The intensity of individual bands with expected molecular sizes was semi-quantitatively analyzed using the image/J® software available at on the Internet (/rsb.info.nih.gov/ij/index.html), and normalized to individual GAPDH intensity.

HUVECs = assay: Tubular formation assay in MATRIGEL; type: cell-based, human; conditions: 50 nM, 24 hours
Experimental: Tubular formation assay. The ability of endostatin peptide to inhibit angiogenesis was examined in tubular formation assay using MATRIGEL® culture. Human umbilical vein endothelial cells (HUVECs) were maintained in endothelial cell basal medium-2 (EBM-2; Clonetics, San Diego, CA) supplemented with EBM-2 MV SINGLEQUOTS®. HUVECs (5×10^4) were cultured in duplicate on 24-well MATRIGEL® plates (BD Biosciences, San Diego, CA) alone, or in the presence of rE or E4 peptide (50 nM) in EBM-2 at 37° C. DMSO was used as vehicle control. After 24 hours, images were captured using a […] microscope. The degree of cord formation was quantified by measuring the area occupied by tubes in 6 random fields per well. Three independent experiments were performed.

lysyl oxidase (LOX) [5] = assay: LOX Western blot in conditioned media of primary human lung fibroblasts; type: cell-based; conditions: TGF-β followed 30 min later by E4; 48 h
Experimental: FIG. 13. E4 reduces fibrosis in vitro by blocking TGF-β-induced LOX production in primary human lung fibroblasts. Normal lung fibroblasts in passage 4 were treated with vehicle, E4, TGF-β, or TGF-β followed 30 min. later by E4. Media conditioned by the fibroblasts were analyzed using Western blot analysis after 48 hour. Lane 1: Vehicle (DMSO); Lane 2: E-4; Lane 3: TGF-β; Lane 4: TGF-β followed by E4. Similar results were obtained when LOX mRNA levels were examined by real-time PCR.
E4-mediated reduction of LOX was detected also was detected in vitro. Normal lung fibroblasts in passage 4 were treated with vehicle, E4, TGF-β, or TGF-β followed 30 minutes later by E4 (FIG. 13). Media conditioned by the fibroblasts were analyzed using Western blot analysis after 48 hrs. […] Similar results were obtained when LOX mRNA levels were examined by real-time PCR.

[6] = IPF fibroblasts, 5, 10 and 20 μg/ml, vs vehicle control

What does the source list for “E4: SEQ ID NO: 21, amino acids 133-180 of human endostatin with a C-terminal amide (SYCETWRTEAPSATGQASSLLGGRLLGQSAASCHHAYIVLCIENSFMT-NH2; cysteine pairing not given here)”?
levels of lysyl oxidase (LOX) (lysyl oxidase (LOX) [1]): reduces; LOX levels in lung (lysyl oxidase (LOX) [2]): reduces levels; also recorded: reducing levels; Col1α1 levels [3, 6]: dose-dependently reduced; FN levels [3, 6]: modest effect; FN and Col1α1 levels ([3]; fibrotic (IPF) lung fibroblasts, absence of TGF-β stimulation): decreased; FN and Col1α1 levels ([3]; normal human lung fibroblasts, TGF-β 24 h, then 5 μg/ml for 48 h): significantly suppressed; TGF-β-induced α-SMA levels ([3]; normal lung fibroblasts): decreased; Effect of E4 peptide on MMP-3 (MMP-3): increased levels and activity; also recorded: Increase; collagen increase (human skin explants): skin thickness and attenuated; skin thickness (human skin explants): TGF-β, significantly decreased; TGF-β-induced ECM production [4]: reduced; inhibition of tubular structure formation (anti-angiogenic activity) (HUVECs): modest and low and minimal anti-angiogenic activity; TGF-β-induced LOX production (lysyl oxidase (LOX) [5]): significantly reduced; also recorded: blocking
